{"source": "patent US20080305186A1", "about": "“Method and Composition for the Treatment of Cardiac Hypertrophy” (BOARD OF REGENTS, THE UNIVERSITY OF TEXAS SYSTEM, priority 2007, published 2008)", "test_system": "cardiac gene expression", "assay": "Microarray analysis of cardiac gene expression (GeneChip Mouse Genome 430 2.0)", "format": "in vivo, mice", "details": "mouse heart, vs isoproterenol only (CH)", "procedure": "Microarray Sample Preparation and Analysis. Animal hearts were rapidly removed, and the atria and right ventricles were cut and immediately plunged into TRIzol Reagent (Life Technologies). Total RNA was isolated following the manufacturer's instructions, purified by phenol-chloroform extraction and then ethanol precipitation, and 20 μg further processed for microarray analysis. Briefly, cDNA synthesis, in vitro transcription, and labeling and fragmentation to produce the oligonucleotide probes were performed as instructed by the GeneChip manufacturer (Affymetrix). The probes were first hybridized to a test array (Affymetrix) and then to the GeneChip Mouse Genome 430 2.0 Array, using the GeneChip Hybridization Oven 640. The chips were washed in a GeneChip Fluidics Station 450 (Affymetrix), and the results were visualized with a GeneChip G7 scanner (Affymetrix). RMA normalization, pairwise comparisons, Student's t test and Benjamini and Hochberg correction were subsequently performed using GeneSifter (VizX Labs, Seattle, Wash.) and Spotfire DecisionSite 8.3 (Spotfire, Inc., Somerville, Mass.).\nEffects on Gene Expression Profile. […] One mouse heart was used for each array, and was performed in triplicate, generating a total of 12 arrays. GeneSifter was used to perform RMA normalization, pairwise comparisons of averaged signal intensity values, and Student's t-test with Benjamini and Hochberg correction, and Spotfire was used to perform pairwise comparisons. […] Additionally, genes that were altered between any two N or cardiac hypertrophy samples were removed, as these alterations most likely represented normal variations between mice."}
{"compound": "C[C@H]1c2cccc(O)c2C(=O)C2=C(O)[C@]3(O)C(=O)C(C(N)=O)=C(O)[C@@H](N(C)C)[C@@H]3[C@@H](O)[C@@H]21", "note": "[doxycycline]", "values": [{"measurement": "FC cDNA, BG075321", "setting": "CH vs normal 2.2", "value": "−2.5", "unit": "fold"}, {"measurement": "FC cDNA, BG919470", "setting": "CH vs normal 2.2", "value": "−2.0", "unit": "fold"}, {"measurement": "FC A disintegrin-like and metallopeptidase (reprolysin type) with thrombospondin (ADAMTS)-like 2 (Adamtsl2), AK020831", "setting": "CH vs normal 2.3", "value": "−1.8", "unit": "fold"}, {"measurement": "FC CCAATenhaer binding protein (CEBP), beta (Cebpb), NM_009883", "setting": "CH vs normal 2.3", "value": "−1.9", "unit": "fold"}, {"measurement": "FC cDNA, BB248249", "setting": "CH vs normal 2.3", "value": "−2.1", "unit": "fold"}, {"measurement": "FC cDNA, BB258019", "setting": "CH vs normal 2.3", "value": "−2.3", "unit": "fold"}, {"measurement": "FC cDNA, BB272245", "setting": "CH vs normal 2.3", "value": "−1.6", "unit": "fold"}, {"measurement": "FC cDNA, BC003209", "setting": "CH vs normal 2.3", "value": "−2.1", "unit": "fold"}, {"measurement": "FC cDNA, BF466929", "setting": "CH vs normal 2.3", "value": "−2.8", "unit": "fold"}, {"measurement": "FC Apical protein, Xenopus laevis-like (Apx1), BQ176992", "setting": "CH vs normal 2.4", "value": "−1.7", "unit": "fold"}, {"measurement": "FC Purine-nucleoside phosphorylase (Pnp), BC003788", "setting": "CH vs normal 2.4", "value": "−2.0", "unit": "fold"}, {"measurement": "FC cDNA, BB398891", "setting": "CH vs normal 2.4", "value": "−2.2", "unit": "fold"}, {"measurement": "FC cDNA, BC027342", "setting": "CH vs normal 2.4", "value": "−2.8", "unit": "fold"}, {"measurement": "FC ATP-binding cassette, sub-family G (WHITE), member 2 (Abcg2), NM_011920", "setting": "CH vs normal 2.5", "value": "−1.7", "unit": "fold"}, {"measurement": "FC Angiogenin, ribonuclease A family, member 1 (Ang1), NM_007447", "setting": "CH vs normal 2.5", "value": "−2.1", "unit": "fold"}, {"measurement": "FC ESTs, AI447357", "setting": "CH vs normal 2.5", "value": "−2.5", "unit": "fold"}, {"measurement": "FC cDNA, BB787946", "setting": "CH vs normal 2.5", "value": "−2.3", "unit": "fold"}, {"measurement": "FC cDNA, BE956940", "setting": "CH vs normal 2.5", "value": "−2.2", "unit": "fold"}, {"measurement": "FC cDNA, BG065702", "setting": "CH vs normal 2.5", "value": "−2.5", "unit": "fold"}, {"measurement": "FC Casitas B-lineage lymphoma b (Cblb), BB205662", "setting": "CH vs normal 2.6", "value": "−2.1", "unit": "fold"}, {"measurement": "FC Cysteine proteinase cathepsin L (Ctsl), J02583", "setting": "CH vs normal 2.6", "value": "−2.1", "unit": "fold"}, {"measurement": "FC Dipeptidase 1 (Dpep1), NM_007876", "setting": "CH vs normal 2.6", "value": "−2.3", "unit": "fold"}, {"measurement": "FC Fc fragment of IgG, low affinity IIIa, receptor (Fcrl3), BC027310", "setting": "CH vs normal 2.6", "value": "−2.7", "unit": "fold"}, {"measurement": "FC cDNA, AV234245", "setting": "CH vs normal 2.6", "value": "−1.8", "unit": "fold"}, {"measurement": "FC cDNA, AW552579", "setting": "CH vs normal 2.6", "value": "−2.4", "unit": "fold"}, {"measurement": "FC Bcl2-like (Bcl211), BM228788", "setting": "CH vs normal 2.7", "value": "−1.9", "unit": "fold"}, {"measurement": "FC Ceruloplasmin (Cp), NM_007752", "setting": "CH vs normal 2.7", "value": "−1.7", "unit": "fold"}, {"measurement": "FC G7e protein, NM_033075", "setting": "CH vs normal 2.7", "value": "−2.2", "unit": "fold"}, {"measurement": "FC Mitogen activated protein kinase kinase kinase 8 (Map3k8), NM_007746", "setting": "CH vs normal 2.7", "value": "−3.0", "unit": "fold"}, {"measurement": "FC cDNA, BB200607", "setting": "CH vs normal 2.7", "value": "−2.7", "unit": "fold"}, {"measurement": "FC cDNA, BC019553", "setting": "CH vs normal 2.7", "value": 1.7, "unit": "fold"}, {"measurement": "FC cDNA, BG071024", "setting": "CH vs normal 2.7", "value": "−2.8", "unit": "fold"}, {"measurement": "FC cDNA, BQ174442", "setting": "CH vs normal 2.7", "value": "−2.2", "unit": "fold"}, {"measurement": "FC cDNA, AV365503", "setting": "CH vs normal 2.8, first AV365503 line", "value": "−3.0", "unit": "fold"}, {"measurement": "FC Carbonic anhydrase 4 (Car4), NM_007607", "setting": "CH vs normal 2.8, second NM_007607 line", "value": "−4.3", "unit": "fold"}, {"measurement": "FC ChaC, cation transport regulator-like 1 (Chac1), BC025169", "setting": "CH vs normal 2.9", "value": "−2.6", "unit": "fold"}, {"measurement": "FC Decorin (Dcn), AV321547", "setting": "CH vs normal 2.9", "value": "−2.0", "unit": "fold"}, {"measurement": "FC Glycoprotein (transmembrane) nmb (Gpnmb), NM_053110", "setting": "CH vs normal 2.9", "value": "−2.0", "unit": "fold"}, {"measurement": "FC cDNA, BC004065", "setting": "CH vs normal 2.9", "value": "−3.1", "unit": "fold"}, {"measurement": "FC cDNA, BC020080", "setting": "CH vs normal 2.9", "value": "−3.4", "unit": "fold"}, {"measurement": "FC Amyotrophic lateral sclerosis 2 (juvenile) chromosome region, candidate 13 (Als2cr13), AV326938", "setting": "CH vs normal 3.0", "value": "−1.6", "unit": "fold"}, {"measurement": "FC Chromodomain protein, Y chromosome-like (Cdyl), NM_009881", "setting": "CH vs normal 3.0", "value": "−2.0", "unit": "fold"}, {"measurement": "FC C-type lectin domain family 1, member a (Clec1a), BB035924", "setting": "CH vs normal 3.1", "value": "−2.2", "unit": "fold"}, {"measurement": "FC Casitas B-lineage lymphoma b (Cblb), AW545867", "setting": "CH vs normal 3.1", "value": "−2.1", "unit": "fold"}, {"measurement": "FC Prostaglandin D synthetase (Ptdgs), AB006361", "setting": "CH vs normal 3.1", "value": "−2.3", "unit": "fold"}, {"measurement": "FC cDNA, AA939619", "setting": "CH vs normal 3.1", "value": "−3.1", "unit": "fold"}, {"measurement": "FC cDNA, AI790538", "setting": "CH vs normal 3.1", "value": "−2.0", "unit": "fold"}, {"measurement": "FC Carbonic anhydrase 4 (Car4), NM_007607", "setting": "CH vs normal 3.1, first NM_007607 line", "value": "−5.2", "unit": "fold"}, {"measurement": "FC cDNA, AV365503", "setting": "CH vs normal 3.1, second AV365503 line", "value": "−2.8", "unit": "fold"}, {"measurement": "FC CUB and zona pellucida-like domains 1 (Cuzd1), NM_008411", "setting": "CH vs normal 3.2", "value": "−1.7", "unit": "fold"}, {"measurement": "FC Chemokine (C—C motif) ligand 6 (Cc16) (MRP-1), BC002073", "setting": "CH vs normal 3.2", "value": "−1.9", "unit": "fold"}, {"measurement": "FC G7e protein, BC027314", "setting": "CH vs normal 3.2", "value": "−3.1", "unit": "fold"}, {"measurement": "FC Serine (or cysteine) peptidase inhibitor, clade A, member 3G (Serpina3g), BC002065", "setting": "CH vs normal 3.2", "value": "−3.6", "unit": "fold"}, {"measurement": "FC cDNA, AV084904", "setting": "CH vs normal 3.2", "value": "−1.7", "unit": "fold"}, {"measurement": "FC cDNA, AV369812", "setting": "CH vs normal 3.2", "value": "−2.5", "unit": "fold"}, {"measurement": "FC cDNA, BB829165", "setting": "CH vs normal 3.2", "value": "−3.1", "unit": "fold"}, {"measurement": "FC cDNA, BG297038", "setting": "CH vs normal 3.2", "value": "−3.3", "unit": "fold"}, {"measurement": "FC cDNA, NM_133898", "setting": "CH vs normal 3.2", "value": "−3.3", "unit": "fold"}, {"measurement": "FC Angiogenin, ribonuclease A family, member 1 (Ang1), AI385586", "setting": "CH vs normal 3.2, first AI385586 line", "value": "−2.1", "unit": "fold"}, {"measurement": "FC Pyruvate dehydrogenase kinase 4 (Pdk4), NM_013743", "setting": "CH vs normal 3.3", "value": "−3.1", "unit": "fold"}]}
